{"source": "paper PMC6359543", "about": "“Efficacy of Azatyrosine-Phenylbutyric Hydroxamides, a Histone Deacetylase Inhibitor, on Chemotherapy-Induced Gastrointestinal Mucositis” (International Journal of Molecular Sciences, 2019)", "key": {"HDAC3": {"molecular_target": "T1, HDAC3 (Homo sapiens, UniProt O15379)", "T1 construct": "purchased Enzo Life Sciences, Farmingdale, NY, USA", "T1 sequence (O15379 whole entry, species assumed)": "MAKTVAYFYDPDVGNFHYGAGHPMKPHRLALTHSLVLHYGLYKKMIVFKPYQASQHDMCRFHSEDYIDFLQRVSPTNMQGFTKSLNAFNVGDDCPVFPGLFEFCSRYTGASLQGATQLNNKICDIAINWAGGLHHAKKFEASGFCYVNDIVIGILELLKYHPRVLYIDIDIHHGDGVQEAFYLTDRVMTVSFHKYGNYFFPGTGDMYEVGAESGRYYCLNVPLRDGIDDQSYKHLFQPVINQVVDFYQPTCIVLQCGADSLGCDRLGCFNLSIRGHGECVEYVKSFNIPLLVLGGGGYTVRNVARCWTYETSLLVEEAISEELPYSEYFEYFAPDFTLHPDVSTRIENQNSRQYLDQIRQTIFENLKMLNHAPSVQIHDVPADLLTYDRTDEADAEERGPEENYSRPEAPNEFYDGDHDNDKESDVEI", "T1 sequence (O75376 395-489 partner limits assumed, species assumed)": "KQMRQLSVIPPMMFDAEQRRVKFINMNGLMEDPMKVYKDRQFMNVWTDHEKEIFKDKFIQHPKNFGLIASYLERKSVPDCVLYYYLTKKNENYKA", "assay": "HDAC fluorometric activity assay, HDAC3", "assay_type": "biochemical", "protocol": "(§1) Pan HDAC enzyme (all the known class I HDACs-HDAC1, HDAC2, HDAC3, HDAC8 and class II HDACs 4-7, 9 and 10), HDAC subtype 1, 3 and 4 activity were determined by using the HDAC fluorometric cellular activity assay (Enzo Life Sciences, Farmingdale, NY, USA) according to the manufacturer’s protocol. […] Percent activity for each of the test compounds is calculated as follows:\n(§2) Activity = {(Sc − B)/(S° − B)} × 100. […] IC50 was then calculated and represented as mean ± SD."}, "HDAC4": {"molecular_target": "T2, HDAC4 (Homo sapiens, UniProt P56524)", "T2 construct": "purchased Enzo Life Sciences, Farmingdale, NY, USA", "T2 sequence (P56524 whole entry, species assumed)": "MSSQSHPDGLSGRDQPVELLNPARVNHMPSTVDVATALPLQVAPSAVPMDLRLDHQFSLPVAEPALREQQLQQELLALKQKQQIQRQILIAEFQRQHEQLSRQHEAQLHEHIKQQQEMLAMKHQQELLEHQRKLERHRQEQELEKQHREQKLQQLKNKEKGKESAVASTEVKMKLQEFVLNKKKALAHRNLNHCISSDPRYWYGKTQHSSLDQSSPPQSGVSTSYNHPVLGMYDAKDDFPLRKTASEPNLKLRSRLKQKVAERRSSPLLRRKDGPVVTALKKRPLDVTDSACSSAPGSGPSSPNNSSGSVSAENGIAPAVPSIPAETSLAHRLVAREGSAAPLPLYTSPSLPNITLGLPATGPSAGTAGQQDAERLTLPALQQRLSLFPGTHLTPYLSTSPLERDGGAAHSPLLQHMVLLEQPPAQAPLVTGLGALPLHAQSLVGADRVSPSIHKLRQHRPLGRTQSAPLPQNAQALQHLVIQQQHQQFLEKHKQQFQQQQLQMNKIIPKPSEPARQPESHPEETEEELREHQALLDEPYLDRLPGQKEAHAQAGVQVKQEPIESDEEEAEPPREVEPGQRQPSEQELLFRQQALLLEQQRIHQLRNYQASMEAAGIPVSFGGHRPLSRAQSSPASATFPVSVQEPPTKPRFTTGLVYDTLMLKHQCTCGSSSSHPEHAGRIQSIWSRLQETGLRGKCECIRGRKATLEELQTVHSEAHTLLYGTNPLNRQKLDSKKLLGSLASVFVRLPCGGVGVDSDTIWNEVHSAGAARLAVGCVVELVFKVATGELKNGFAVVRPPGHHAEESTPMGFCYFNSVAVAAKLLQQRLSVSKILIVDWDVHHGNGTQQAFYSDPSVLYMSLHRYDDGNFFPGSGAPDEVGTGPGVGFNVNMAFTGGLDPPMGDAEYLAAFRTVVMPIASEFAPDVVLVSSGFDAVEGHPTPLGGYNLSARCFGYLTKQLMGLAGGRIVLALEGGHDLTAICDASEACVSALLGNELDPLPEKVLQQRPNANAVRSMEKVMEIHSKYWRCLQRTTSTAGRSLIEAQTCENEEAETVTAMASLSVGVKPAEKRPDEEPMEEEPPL", "assay": "HDAC fluorometric activity assay, HDAC4", "assay_type": "biochemical", "protocol": "as §1, §2"}, "IEC-6 cells [1]": {"tested_on": "IEC-6 cells", "assay": "LPS-induced MAPK/Akt phosphorylation in IEC-6 cells (Western blot)", "assay_type": "cell-based, Rat", "protocol": "Figure 6 Western blotting of IEC-6 cells treated with LPS and/or AzP. (A) IEC-6 cells (1 × 10^6 cells/mL) were dispensed on 6 cm dishes and (A) treated with LPS (500 ng/mL) for 10, 20, 30, 60, and 90 min. Data expressed as means ± SD from 3 independent experiments. * p < 0.05 as compared with the resting. (B) Treatment with LPS (500 ng/mL) for 10 min as indicated. Cells were treated with the indicated concentrations of AzP (5, 10, and 20 μM) or vehicle for 30 min before treatment with LPS. Cell lysates were collected for Western blot targeting p-ERK phosphorylation (Thr202/Tyr204, B), MEK phosphorylation ([…], C), and Akt phosphorylation (Ser473, D). Data expressed as means ± SD from 3 independent experiments. ### p < 0.001 as compared with the resting, * p < 0.05, ** p < 0.01 and *** p < 0.001 as compared with the vehicle.\nIEC-6 cells were incubated in different AzP concentrations with/without LPS stimulation for 24 h. The homogenate from cells or tissues was then centrifuged at 14,000× g for 10 min at 4 °C and the supernatant was collected. Protein separation was performed using 10% reducing SDS-PAGE, electrotransferred onto polyvinylidene difluoride (PVDF), and immunoblotted with antibodies against inflammatory proteins as well as β-actin as control. Densitometry was performed using BioLight software V2000.01 (Uhldingen-Mühlhofen, Germany). The optical density of specific protein was normalized to an internal control and expressed as a ratio to control."}, "[2]": {"tested_on": "Salmonella typhimurium TA100", "assay_type": "cell-based", "description": "(§3) Five strains of Salmonella typhimurium, TA98, TA102, TA100, TA1537, and TA1535, were obtained from Moltox (Boone, NC, USA). Mutagenicity was evaluated by the incorporation method in the presence or absence of S9 metabolic activation [29]. A volume of 100 µL of each test bacterial culture (10^9 cells/mL), 2 mL soft agar (0.6% agar, 0.5% NaCl, 5 mM histidine, and 50 mM biotin, pH 7.4, 40–50 °C), 0.5 mL S9 mixture (if necessary), and AzP were mixed well in a test tube. […] The revertant colonies were counted, and a positive mutagenic response was identified when (i) the number of revertants was at least double the spontaneous yield; (ii) a statistical significance (p ≤ 0.05) was found; and (iii) a reproducible positive dose response was present."}, "[3]": {"tested_on": "Salmonella typhimurium TA102", "protocol": "Five strains of Salmonella typhimurium, TA98, TA102, TA100, TA1537, and TA1535, were obtained from Moltox (Boone, NC, USA). Mutagenicity was evaluated by the incorporation method in the presence or absence of S9 metabolic activation. A volume of 100 µL of each test bacterial culture (10^9 cells/mL), 2 mL soft agar (0.6% agar, 0.5% NaCl, 5 mM histidine, and […], pH 7.4, 40–50 °C), 0.5 mL S9 mixture (if necessary), and AzP were mixed well in a test tube. […] The revertant colonies were counted, and a positive mutagenic response was identified when (i) the number of revertants was at least double the spontaneous yield; (ii) a statistical significance (p ≤ 0.05) was found; and (iii) a reproducible positive dose response was present."}, "[4]": {"tested_on": "Salmonella typhimurium TA1535", "assay_type": "cell-based", "description": "as §3"}, "male ICR mice": {"tested_on": "male ICR mice", "assay": "Micronucleus test", "settings": "mouse, in vivo", "protocol": "Male ICR mice (n = 5) were administered AzP orally by gavage, at doses of 5, 50, and 500 mg/kg body weight. […] At 24, 48, and 72 h after dosing, 2-μL blood samples were collected from the tail vein onto a slide stained with acridine orange (40 μg/mL). The ratio (%) of polychromatic erythrocytes (PCEs) to total erythrocytes was determined using fluorescence microscopy. In addition, the frequency of micronucleated polychromatic erythrocytes (MNPCEs; ‰) was counted to a total of 1000 erythrocytes or PCEs per animal."}, "IEC-6 cells [5]": {"tested_on": "IEC-6 cells", "assay": "Cisplatin-reduced IEC-6 cell viability", "assay_type": "cell-based, Rat", "settings": "data not shown"}}, "note": "Like-named read-outs stand apart in the source and are kept apart here.", "data": [{"smiles": "CC(C)(C)OC(=O)NC(Cc1ccc(OCc2ccccc2)cn1)C(=O)Nc1ccc(CCCC(=O)NO)cc1", "note": "(centres unmarked) [AzP, Azatyrosine-phenylbutyric hydroxamides]", "values": [{"measurement": "IC50", "setting": "HDAC3", "result": "660 ± 99", "unit": "nM"}, {"measurement": "IC50", "setting": "HDAC4", "result": "1970 ± 110", "unit": "nM"}, {"measurement": "LPS-induced ERK activation (phosphorylation)", "setting": "IEC-6 cells [1]; LPS 500 ng/mL 10 min, AzP 5–20 μM", "result": "dose-dependently reverse"}, {"measurement": "LPS-induced Akt phosphorylation", "setting": "IEC-6 cells [1]; LPS 10 min, AzP 5–20 μM", "result": "concentration-dependently reversed"}, {"measurement": "LPS-induced MEK1/2 phosphorylation", "setting": "IEC-6 cells [1]; LPS 10 min, AzP 5–20 μM", "result": "concentration-dependently reversed"}, {"measurement": "JNK phosphorylation", "setting": "IEC-6 cells [1]; LPS, data not shown", "result": "unaffected"}, {"measurement": "p38 phosphorylation", "setting": "IEC-6 cells [1]; LPS, data not shown", "result": "unaffected"}, {"measurement": "IKK phosphorylation", "setting": "IEC-6 cells [1]; Western blot", "result": "unaffected"}, {"measurement": "p65 phosphorylation", "setting": "IEC-6 cells [1]; Western blot", "result": "unaffected"}, {"measurement": "Ames test result, TA100 (-S9)", "setting": "[2]; -S9", "result": "Negative"}, {"measurement": "Revertant colonies per plate (+S9) TA100", "setting": "[2]; AzP 0.00245 mg/plate", "result": "106.7±2.2"}, {"measurement": "Revertant colonies per plate (-S9) TA100", "setting": "[2]; AzP 0.00245 mg/plate", "result": "81±5"}, {"measurement": "Revertant colonies per plate (+S9) TA100", "setting": "[2]; AzP 0.0049 mg/plate", "result": "106±4.4"}, {"measurement": "Revertant colonies per plate (-S9) TA100", "setting": "[2]; AzP 0.0049 mg/plate", "result": "78.7±2.7"}, {"measurement": "Revertant colonies per plate (+S9) TA100", "setting": "[2]; AzP 0.0098 mg/plate", "result": "107.3±1.3"}, {"measurement": "Revertant colonies per plate (-S9) TA100", "setting": "[2]; AzP 0.0098 mg/plate", "result": "81.7±2.7"}, {"measurement": "Revertant colonies per plate (+S9) TA100", "setting": "[2]; AzP 0.0195 mg/plate", "result": "110.3±3.8"}, {"measurement": "Revertant colonies per plate (-S9) TA100", "setting": "[2]; AzP 0.0195 mg/plate", "result": "89.7±9"}, {"measurement": "Revertant colonies per plate (+S9) TA100", "setting": "[2]; AzP 0.0391 mg/plate", "result": "150.3±19.7"}, {"measurement": "Revertant colonies per plate (-S9) TA100", "setting": "[2]; AzP 0.0391 mg/plate", "result": "90.8±9.6"}, {"measurement": "Revertant colonies per plate (+S9) TA100", "setting": "[2]; AzP 0.0781 mg/plate", "result": "153±3.1"}, {"measurement": "Revertant colonies per plate (-S9) TA100", "setting": "[2]; AzP 0.0781 mg/plate", "result": "88.7±1.2"}, {"measurement": "Revertant colonies per plate (+S9) TA100", "setting": "[2]; AzP 0.156 mg/plate", "result": "104±8"}, {"measurement": "Revertant colonies per plate (+S9) TA100", "setting": "[2]; AzP 0.3125 mg/plate", "result": "92.2±5.2"}, {"measurement": "Ames test result, TA100 (|S9)", "setting": "[2]; second S9 group", "result": "Negative"}, {"measurement": "Ames test result, TA102 (-S9)", "setting": "[3]; -S9", "result": "Negative"}, {"measurement": "Revertant colonies per plate (+S9) TA102", "setting": "[3]; AzP 0.00245 mg/plate", "result": "219.7±6.9"}, {"measurement": "Revertant colonies per plate (-S9) TA102", "setting": "[3]; AzP 0.00245 mg/plate", "result": "141±4.4"}, {"measurement": "Revertant colonies per plate (+S9) TA102", "setting": "[3]; AzP 0.0049 mg/plate", "result": "225.7±4.5"}, {"measurement": "Revertant colonies per plate (-S9) TA102", "setting": "[3]; AzP 0.0049 mg/plate", "result": "142.3±4.7"}, {"measurement": "Revertant colonies per plate (+S9) TA102", "setting": "[3]; AzP 0.0098 mg/plate", "result": "215±4"}, {"measurement": "Revertant colonies per plate (-S9) TA102", "setting": "[3]; AzP 0.0098 mg/plate", "result": "140.3±7.9"}, {"measurement": "Revertant colonies per plate (+S9) TA102", "setting": "[3]; AzP 0.0195 mg/plate", "result": "230.7±2"}, {"measurement": "Revertant colonies per plate (-S9) TA102", "setting": "[3]; AzP 0.0195 mg/plate", "result": "139.5±5.6"}, {"measurement": "Revertant colonies per plate (+S9) TA102", "setting": "[3]; AzP 0.0391 mg/plate", "result": "212.2±9.2"}, {"measurement": "Revertant colonies per plate (-S9) TA102", "setting": "[3]; AzP 0.0391 mg/plate", "result": "138.3±8.5"}, {"measurement": "Revertant colonies per plate (+S9) TA102", "setting": "[3]; AzP 0.0781 mg/plate", "result": "233.3±9.8"}, {"measurement": "Revertant colonies per plate (-S9) TA102", "setting": "[3]; AzP 0.0781 mg/plate", "result": "152.7±11.3"}, {"measurement": "Revertant colonies per plate (+S9) TA102", "setting": "[3]; AzP 0.156 mg/plate", "result": "217.3±4.8"}, {"measurement": "Revertant colonies per plate (+S9) TA102", "setting": "[3]; AzP 0.3125 mg/plate", "result": "230.1±8.4"}, {"measurement": "Revertant colonies per plate (+S9) TA102", "setting": "[3]; AzP 0.625 mg/plate", "result": "217.4±7.3"}, {"measurement": "Ames test result, TA102 (|S9)", "setting": "[3]; second S9 group", "result": "Negative"}, {"measurement": "Ames test result, TA1535 (-S9)", "setting": "[4]; -S9", "result": "Negative"}, {"measurement": "Revertant colonies per plate (-S9) TA1535", "setting": "[4]; AzP 0.0195 mg/plate", "result": "52±1.2"}, {"measurement": "Revertant colonies per plate (+S9) TA1535", "setting": "[4]; AzP 0.0391 mg/plate", "result": "46.5±3.3"}, {"measurement": "Revertant colonies per plate (-S9) TA1535", "setting": "[4]; AzP 0.0391 mg/plate", "result": "47.3±9"}, {"measurement": "Revertant colonies per plate (+S9) TA1535", "setting": "[4]; AzP 0.0781 mg/plate", "result": "50.5±4.9"}, {"measurement": "Revertant colonies per plate (-S9) TA1535", "setting": "[4]; AzP 0.0781 mg/plate", "result": "59±0.6"}, {"measurement": "Revertant colonies per plate (+S9) TA1535", "setting": "[4]; AzP 0.156 mg/plate", "result": "52.5±5.2"}, {"measurement": "Revertant colonies per plate (-S9) TA1535", "setting": "[4]; AzP 0.156 mg/plate", "result": "61.3±2.2"}, {"measurement": "Revertant colonies per plate (+S9) TA1535", "setting": "[4]; AzP 0.3125 mg/plate", "result": "51.7±3.6"}, {"measurement": "Revertant colonies per plate (-S9) TA1535", "setting": "[4]; AzP 0.3125 mg/plate", "result": "54.6±7.2"}, {"measurement": "Revertant colonies per plate (+S9) TA1535", "setting": "[4]; AzP 0.625 mg/plate", "result": "59.2±3.3"}, {"measurement": "Revertant colonies per plate (-S9) TA1535", "setting": "[4]; AzP 0.625 mg/plate", "result": "52.2±13.4"}, {"measurement": "Revertant colonies per plate (+S9) TA1535", "setting": "[4]; AzP 1.25 mg/plate", "result": "67±3.2"}, {"measurement": "Revertant colonies per plate (+S9) TA1535", "setting": "[4]; AzP 2.5 mg/plate", "result": "58±2.1"}, {"measurement": "Ames test result, TA1535 (|S9)", "setting": "[4]; second S9 group", "result": "Negative"}, {"measurement": "Micronucleus Test result", "setting": "male ICR mice", "result": "Negative"}, {"measurement": "influence on cisplatin-reduced cell viability", "setting": "IEC-6 cells [5]", "result": "did not influence"}]}]}
